SMILES strings stand for the structures. Where a name gives a salt, the structure may show the parent alone.

Turning to `COc1ccc(-c2ccc3cc(OC)ccc3c2Oc2ccc(OCCN3CCCCC3)cc2)cc1` (as salt: hydrochloride) [Example 4, 1-[4-[2-(1-piperdinyl)ethoxy]phenoxy]-2-(4-methoxyphenyl)-6-methoxynaphthalene hydrochloride], the melting point (as a rule, the temperature of the solid-liquid transition) is 184 to 188 °C.
